Test results taken from patent US20200022370A1, “MICROBIOCIDAL OXADIAZOLE DERIVATIVES” (SYNGENTA PARTICIPATIONS AG, priority 2016, published 2020).

Experiments:
Uromyces viciae-fabae = Uromyces viciae-fabae / field bean / leaf disc preventative (faba-bean rust); assay type: in vivo; settings: foliar, 288 h, 100 ppm in the applied formulation, field bean leaf discs, inoculated two hours after application, vs untreated, 12 days after application, read-out: disease control
Procedure: (§1) Leaf disks or leaf segments of various plant species are cut from plants grown in a greenhouse. The cut leaf disks or segments are placed in multiwell plates (24-well format) onto water agar. The leaf disks are sprayed with a test solution before (preventative) or after (curative) inoculation. Compounds to be tested are prepared as DMSO solutions (max. 10 mg/ml) which are diluted to the appropriate concentration with 0.025% Tween20 just before spraying. The inoculated leaf disks or segments are incubated under defined conditions (temperature, relative humidity, light, etc.) according to the respective test system. A single evaluation of disease level is carried out 3 to 14 days after inoculation, depending on the pathosystem. Percent disease control relative to the untreated check leaf disks or segments is then calculated.
Example 5: Fungicidal Activity Against Uromyces viciae-fabael Field Bean/Leaf Disc Preventative (Faba-Bean Rust)
Field bean leaf discs are placed on water agar in multiwell plates (96-well format) and 10 μl of the Formulated test compound diluted in acetone and a spreader pipetted onto the leaf disc. Two hours after application leaf discs are inoculated by spraying a spore suspension on the lower leaf surface. The leaf discs are incubated in a climate cabinet at 22° C. with 18 hour day and 70% relative humidity. The activity of a compound is assessed as percent disease control compared to untreated when an appropriate level of disease damage appears in untreated check leaf disks (12 days after application).
The following compounds at 100 ppm in the applied Formulation give at least 80% disease control in this test when compared to untreated control leaf discs under the same conditions, which show extensive disease development.

[1] = system: Glomerella lacenarium (Colletotrichum lacenarium); test: Glomerella lacenarium (Colletotrichum lacenarium) liquid culture / cucumber / preventative (anthracnose); assay type: cell-based; settings: 20 ppm, liquid culture in PDB, 24° C., inhibition of growth measured photometrically 3 to 4 days after application, vs untreated, read-out: disease control
Outline: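 Cryopreserved conidia in potato dextrose broth were added to test compound in a 96-well microtiter plate and incubated at 24 °C. Growth inhibition read photometrically 3–4 days after application, as percent activity versus untreated check.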

[2] = system: Puccinia recondita f. Sp. Tritici; test: Puccinia recondita f. sp. tritici / wheat / leaf disc preventative (brown rust); assay type: in vivo; settings: foliar, 200 ppm in the applied formulation, wheat leaf segments cv. Kanzler, inoculated 1 day after application, vs untreated, 7 to 9 days after application, read-out: disease control
Outline: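 Segments of cv. Kanzler wheat on agar received a spray of compound formulation diluted in water and were inoculated with spores one day afterwards. Kept at 19° C and 75% rh under 12 h/12 h light; disease control relative to untreated checks rated at 7–9 days post-application.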

Phakopsora pachyrhizi = Phakopsora pachyrhizi / soybean / leaf disc preventative (Asian soybean rust); assay type: in vivo; settings: foliar, 200 ppm in the applied formulation, soybean leaf disks, inoculated one day after application, vs untreated, 12 to 14 days after application, read-out: disease control
Outline: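 Soybean leaf discs on water agar sprayed with formulated compound diluted in water, then inoculated one day later with spore suspension on the lower surface. Held 24-36 h dark at 20 °C, 75% rh, then 12 h light/day; percent disease control versus untreated scored 12-14 days after application.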

[3] = system: Puccinia recondita f. Sp. Tritici; test: Puccinia recondita f. sp. tritici / wheat / leaf disc curative (brown rust); assay type: in vivo; settings: foliar, 200 ppm in the applied formulation, wheat leaf segments cv. Kanzler, compound applied 1 day after inoculation, vs untreated, 6 to 8 days after application, read-out: disease control
Procedure: as §1
Example 2: Fungicidal Activity Against Puccinia recondita f. sp. tritici/Wheat/Leaf Disc Curative (Brown Rust)
Wheat leaf segments cv. Kanzler are placed on agar in multiwell plates (24-well format). The leaf segments are then inoculated with a spore suspension of the fungus. Plates were stored in darkness at 19° C. and 75% relative humidity. The Formulated test compound diluted in water was applied 1 day after inoculation. The leaf segments were incubated at 19° C. and 75% relative humidity under a light regime of 12 hours light/12 hours darkness in a climate cabinet and the activity of a compound was assessed as percent disease control compared to untreated when an appropriate level of disease damage appears in untreated check leaf segments (6 to 8 days after application).
The following compounds at 200 ppm in the applied Formulation give at least 80% disease control in this test when compared to untreated control leaf disks under the same conditions, which show extensive disease development.

Compound O=C(Nc1ccc(-c2noc(C(F)(F)F)n2)cc1)c1ccccc1 [Compound 1.3, N-[4-[5-(trifluoromethyl)-1,2,4-oxadiazol-3-yl]phenyl]benzamide] has a pest or weed control at 100 ppm (Uromyces viciae-fabae) of no less than 80%.
For O=C(Nc1ccc(-c2noc(C(F)(F)F)n2)cc1)c1cccn2ccnc12 [Compound 1.7, N-[4-[5-(trifluoromethyl)-1,2,4-oxadiazol-3-yl]phenyl]imidazo[1,2-a]pyridine-8-carboxamide], the pest or weed control at 100 ppm (Uromyces viciae-fabae) was no less than 80%.
Compound O=C(Nc1ccc(-c2noc(C(F)(F)F)n2)cc1)c1cn(C2CC2)c2cc(Cl)c(F)cc2c1=O [Compound 1.8, 7-chloro-1-cyclopropyl-6-fluoro-4-oxo-N-[4-[5-(trifluoromethyl)-1,2,4-oxadiazol-3-yl]phenyl]quinoline-3-carboxamide] has a pest or weed control at 100 ppm (Uromyces viciae-fabae) of no less than 80%.
Compound O=C(Nc1ccc(-c2noc(C(F)(F)F)n2)cc1)c1cccc2c1OCCO2 [Compound 1.9, N-[4-[5-(trifluoromethyl)-1,2,4-oxadiazol-3-yl]phenyl]-2,3-dihydro-1,4-benzodioxine-5-carboxamide] has a pest or weed control at 100 ppm (Uromyces viciae-fabae) of no less than 80%.
Compound CS(=O)(=O)CC(=O)Nc1ccc(-c2noc(C(F)(F)F)n2)cc1 [Compound 1.10, 2-methylsulfonyl-N-[4-[5-(trifluoromethyl)-1,2,4-oxadiazol-3-yl]phenyl]acetamide] has an inhibition of growth at 20 ppm [1] of no less than 80% and a pest or weed control at 100 ppm (Uromyces viciae-fabae) of no less than 80%.
O=C(NC(C(=O)Nc1ccc(-c2noc(C(F)(F)F)n2)cc1)c1ccccc1)OCc1ccccc1 (stereo not drawn) [Compound 1.14, benzyl N-[2-oxo-1-phenyl-2-[4-[5-(trifluoromethyl)-1,2,4-oxadiazol-3-yl]anilino]ethyl] carbamate] was tested, and the pest or weed control at 100 ppm (Uromyces viciae-fabae) was no less than 80%.
In the case of N#Cc1cc(F)c(C(=O)Nc2ccc(-c3noc(C(F)(F)F)n3)cc2)c(F)c1 [Compound 1.15, 4-cyano-2,6-difluoro-N-[4-[5-(trifluoromethyl)-1,2,4-oxadiazol-3-yl]phenyl]benzamide], the inhibition of growth at 20 ppm [1] is reported as no less than 80% and the pest or weed control at 100 ppm (Uromyces viciae-fabae) is reported as no less than 80%.
In the case of O=C(C=Cc1cccc2ccccc12)Nc1ccc(-c2noc(C(F)(F)F)n2)cc1 [Compound 1.17, 3-(1-naphthyl)-N-[4-[5-(trifluoromethyl)-1,2,4-oxadiazol-3-yl]phenyl]prop-2-enamide], the pest or weed control at 100 ppm (Uromyces viciae-fabae) is reported as no less than 80%.
With COc1cc(OC)nc(Oc2ncccc2C(=O)Nc2ccc(-c3noc(C(F)(F)F)n3)cc2)n1 [Compound 1.22, 2-(4,6-dimethoxypyrimidin-2-yl)oxy-N-[4-[5-(trifluoromethyl)-1,2,4-oxadiazol-3-yl]phenyl]pyridine-3-carboxamide] the pest or weed control at 100 ppm (Uromyces viciae-fabae) was no less than 80%.
COc1ccc(Br)cc1C(C)C(=O)Nc1ccc(-c2noc(C(F)(F)F)n2)cc1 (stereo not drawn) [Compound 1.24, 2-(5-bromo-2-methoxy-phenyl)-N-[4-[5-(trifluoromethyl)-1,2,4-oxadiazol-3-yl]phenyl] propanamide] was tested, and the pest or weed control at 100 ppm (Uromyces viciae-fabae) was no less than 80%.
For Cn1nc(C(=O)Nc2ccc(-c3noc(C(F)(F)F)n3)cc2)c(Cl)c1OC(F)F [Compound 1.25, 4-chloro-5-(difluoromethoxy)-1-methyl-N-[4-[5-(trifluoromethyl)-1,2,4-oxadiazol-3-yl]phenyl]pyrazole-3-carboxamide], the pest or weed control at 100 ppm (Uromyces viciae-fabae) was no less than 80%.
Compound O=C(Nc1ccc(-c2noc(C(F)(F)F)n2)cc1)c1nccc2nnsc12 [Compound 1.28, N-[4-[5-(trifluoromethyl)-1,2,4-oxadiazol-3-yl]phenyl]thiadiazolo [5,4-c]pyridine-4-carboxamide] has a pest or weed control at 100 ppm (Uromyces viciae-fabae) of no less than 80%.
CC(C)C(NC(=O)OC(C)(C)C)C1=NOC(C(=O)Nc2ccc(-c3noc(C(F)(F)F)n3)cc2)C1 (stereo not drawn) [Compound 1.30, tert-butyl N-[2-methyl-1-[5-[[4-[5-(trifluoromethyl)-1,2,4-oxadiazol-3-yl]phenyl]carbamoyl]-4,5-dihydroisoxazol-3-yl]propyl]carbamate] showed a pest or weed control at 100 ppm (Uromyces viciae-fabae) of no less than 80%.
Compound Cn1nc(C(C)(C)C)cc1C(=O)Nc1cccc(C(=O)Nc2ccc(-c3noc(C(F)(F)F)n3)cc2)c1 [Compound 1.33, 5-tert-butyl-2-methyl-N-[3-[[4-[5-(trifluoromethyl)-1,2,4-oxadiazol-3-yl]phenyl]carbamoyl]phenyl]pyrazole-3-carboxamide] has a pest or weed control at 100 ppm (Uromyces viciae-fabae) of no less than 80%.
Work on O=C(Nc1ccc(-c2noc(C(F)(F)F)n2)cc1)c1cc(F)cc2nnsc12 [Compound 1.34, 5-fluoro-N-[4-[5-(trifluoromethyl)-1,2,4-oxadiazol-3-yl]phenyl]-1,2,3-benzothiadiazole-7-carboxamide] yielded a pest or weed control at 100 ppm (Uromyces viciae-fabae) of no less than 80%.
With O=C(COc1ccc(Oc2cccc(F)c2)cc1)Nc1ccc(-c2noc(C(F)(F)F)n2)cc1 [Compound 1.35, 2-[4-(3-fluorophenoxy)phenoxy]-N-[4-[5-(trifluoromethyl)-1,2,4-oxadiazol-3-yl]phenyl]acetamide] the pest or weed control at 100 ppm (Uromyces viciae-fabae) was no less than 80%.
Compound Cc1sc(Nc2ccccc2)nc1C(=O)Nc1ccc(-c2noc(C(F)(F)F)n2)cc1 [Compound 1.37, 2-anilino-5-methyl-N-[4-[5-(trifluoromethyl)-1,2,4-oxadiazol-3-yl]phenyl]thiazole-4-carboxamide] has a pest or weed control at 100 ppm (Uromyces viciae-fabae) of no less than 80%.
O=C(Nc1ccc(-c2noc(C(F)(F)F)n2)cc1)c1cccc(OCc2ccccc2)c1 [Compound 1.38, 3-benzyloxy-N-[4-[5-(trifluoromethyl)-1,2,4-oxadiazol-3-yl]phenyl]benzamide] gave a pest or weed control at 100 ppm (Uromyces viciae-fabae) of no less than 80%.
Compound O=C(Nc1ccc(-c2noc(C(F)(F)F)n2)cc1)C(F)(F)c1ccc(Br)cc1 [Compound 1.40, 2-(4-bromophenyl)-2,2-difluoro-N-[4-[5-(trifluoromethyl)-1,2,4-oxadiazol-3-yl]phenyl]acetamide] has a pest or weed control at 100 ppm (Uromyces viciae-fabae) of no less than 80%.
Work on O=C(Nc1ccc(-c2noc(C(F)(F)F)n2)cc1)c1ccc(-n2ccnc2)cc1 [Compound 1.42, 4-imidazol-1-yl-N-[4-[5-(trifluoromethyl)-1,2,4-oxadiazol-3-yl]phenyl]benzamide] yielded a pest or weed control at 100 ppm (Uromyces viciae-fabae) of no less than 80%.
For O=C(Nc1ccc(-c2noc(C(F)(F)F)n2)cc1)c1cc(Br)nn1-c1ncccc1Cl [Compound 1.43, 5-bromo-2-(3-chloro-2-pyridyl)-N-[4-[5-(trifluoromethyl)-1,2,4-oxadiazol-3-yl]phenyl]pyrazole-3-carboxamide], the pest or weed control at 100 ppm (Uromyces viciae-fabae) was no less than 80%.
CC(=O)N(c1ccc(-c2noc(C(F)(F)F)n2)cc1)C(C)C(=O)NC(C)(C)C (stereo not drawn) [Compound 1.59, 2-[N-acetyl-4-[5-(trifiuoromethyl)-1,2,4-oxadiazol-3-yl]anilino]-N-tert-butyl-propanamide] showed a pest or weed control at 100 ppm (Uromyces viciae-fabae) of no less than 80%.
CC(=O)N(c1ccc(-c2noc(C(F)(F)F)n2)cc1)C(C)(C)C(=O)NC(C)(C)C [Compound 1.61, 2-[N-acetyl-4-[5-(trifluoromethyl)-1,2,4-oxadiazol-3-yl]anilino]-N-tert-butyl-2-methyl-propanamide] showed a pest or weed control at 100 ppm (Uromyces viciae-fabae) of no less than 80%.
CN(C(=O)c1ccccc1)c1ccc(-c2noc(C(F)(F)F)n2)cc1 [Compound 2.20, N-methyl-N-[4-[5-(trifluoromethyl)-1,2,4-oxadiazol-3-yl]phenyl]benzamide] gave a pest or weed control at 200 ppm [2] of no less than 80%, a pest or weed control at 200 ppm (Phakopsora pachyrhizi) of no less than 80% and an inhibition of growth at 20 ppm [1] of no less than 80%. It also gave a pest or weed control at 200 ppm [3] of no less than 80%.
Work on CC(=O)Nc1ccc(-c2noc(C(F)(F)F)n2)cn1 [Compound 2.29, N-[5-[5-(trifluoromethyl)-1,2,4-oxadiazol-3-yl]-2-pyridyl]acetamide] yielded a pest or weed control at 200 ppm [2] of no less than 80%, a pest or weed control at 200 ppm (Phakopsora pachyrhizi) of no less than 80% and an inhibition of growth at 20 ppm [1] of no less than 80%. It also gave a pest or weed control at 200 ppm [3] of no less than 80%.
